Assay results: patent US20110086759A1, “CHEMICAL COMPOUNDS” (SYNGENTA CROP PROTECTION, INC., priority 2007, published 2011)

Tests used:
Format in all cases: in vivo
[1] = tested on: Alopecurus myosuroides (ALOMY); experiment: Post-emergence biological efficacy, glasshouse pot test; conditions: 312 h, post-emergence, 1,000 g/ha, evaluated after 13 days (100=total damage; 0=no damage), read-out: Percentage damage caused to weed species, ALOMY
How it was run: (§1)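 Pot-grown weeds were sprayed 8 days after sowing with test compound in acetone/water (50:50) with 0.5% Tween 20 at 1000 or 250 g/ha. Glasshouse at 24/16° C day/night, 14 h light, 65% humidity. Damage scored 0-100 (100 = total damage) after 13 days.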

[2] = tested on: Echinochloa crus-galli (ECHCG); experiment: as above; conditions: 312 h, post-emergence, 1,000 g/ha, evaluated after 13 days (100=total damage; 0=no damage), read-out: Percentage damage caused to weed species, ECHCG
How it was run: as §1

[3] = tested on: Amaranthus retoflexus (AMARE); experiment: as above; conditions: Amaranthus retroflexus, 312 h; post-emergence, 1,000 g/ha, evaluated after 13 days (100=total damage; 0=no damage); read-out: Percentage damage caused to weed species, AMARE
How it was run: as §1

[4] = tested on: Solanum nigrum (SOLNI); experiment: as above; conditions: 312 h, post-emergence, 1,000 g/ha, evaluated after 13 days (100=total damage; 0=no damage), read-out: Percentage damage caused to weed species, SOLNI
How it was run: as §1

[5] = tested on: Ipomea hederaceae (IPOHE); experiment: as above; conditions: Ipomoea hederacea, 312 h; post-emergence, 1,000 g/ha, evaluated after 13 days (100=total damage; 0=no damage); read-out: Percentage damage caused to weed species, IPOHE
How it was run: as §1

[6] = tested on: Setaria faberi (SETFA); experiment: as above; conditions: 312 h, post-emergence, 1,000 g/ha, evaluated after 13 days (100=total damage; 0=no damage), read-out: Percentage damage caused to weed species, SETFA
How it was run: as §1

[7] = tested on: Alopecurus myosuroides (ALOMY); experiment: Pre-emergence biological efficacy, glasshouse pot test; conditions: 312 h, pre-emergence, 1,000 g/ha, evaluated after 13 days (100=total damage; 0=no damage), read-out: Percentage damage ALOMY
How it was run: (§2)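 One day after sowing in standard soil, pots were sprayed with compound in acetone/water (50:50) with 0.5% Tween 20, at 1000 or 250 g/ha. Plants grew at 24/16° C day/night, 14 h light, 65% humidity. Damage was scored after 13 days (0 = none, 100 = total).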

[8] = tested on: Echinochloa crus-galli (ECHCG); experiment: as above; conditions: 312 h, pre-emergence, 1,000 g/ha, evaluated after 13 days (100=total damage; 0=no damage), read-out: Percentage damage ECHCG
How it was run: as §2

[9] = tested on: Amaranthus retoflexus (AMARE); experiment: as above; conditions: Amaranthus retroflexus, 312 h; pre-emergence, 1,000 g/ha, evaluated after 13 days (100=total damage; 0=no damage); read-out: Percentage damage AMARE
How it was run: as §2

[10] = tested on: Solanum nigrum (SOLNI); experiment: as above; conditions: 312 h, pre-emergence, 1,000 g/ha, evaluated after 13 days (100=total damage; 0=no damage), read-out: Percentage damage SOLNI
How it was run: as §2

[11] = tested on: Ipomea hederaceae (IPOHE); experiment: as above; conditions: Ipomoea hederacea, 312 h; pre-emergence, 1,000 g/ha, evaluated after 13 days (100=total damage; 0=no damage); read-out: Percentage damage IPOHE
How it was run: as §2

[12] = tested on: Setaria faberi (SETFA); experiment: as above; conditions: 312 h, pre-emergence, 1,000 g/ha, evaluated after 13 days (100=total damage; 0=no damage), read-out: Percentage damage SETFA
How it was run: as §2

| Compound | pest or weed control at 1000 g/ha [1] [%] | pest or weed control at 1000 g/ha [2] [%] | pest or weed control at 1000 g/ha [3] [%] | pest or weed control at 1000 g/ha [4] [%] | pest or weed control at 1000 g/ha [5] [%] | pest or weed control at 1000 g/ha [6] [%] | pest or weed control at 1000 g/ha [7] [%] | pest or weed control at 1000 g/ha [8] [%] | pest or weed control at 1000 g/ha [9] [%] | pest or weed control at 1000 g/ha [10] [%] | pest or weed control at 1000 g/ha [11] [%] | pest or weed control at 1000 g/ha [12] [%] |
| --- | --- | --- | --- | --- | --- | --- | --- | --- | --- | --- | --- | --- |
| COC(=O)c1nc(C2CC2)nc(NC2(/C=C/c3ccc(C)cc3)CC2)c1Cl [Compound 4-25, 5-Chloro-2-cyclopropyl-6-methoxycarbonyl-4-{1-[2-(4-methylphenyl)-ethenyl]-cyclopropylamino}-pyrimidine] | 40 | 60 | 100 | 80 | 100 | 60 | 10 | 10 | 100 | 60 | 30 | 0 |
| COC(=O)c1nc(C2CC2)nc(NC2(/C=C/c3c(F)cccc3F)CC2)c1Cl [Compound 4-26, 5-Chloro-2-cyclopropyl-4-{1-[2-(2,6-difluoro-phenyl)ethenyl]-cyclopropylamino}-6-methoxy-carbonylpyrimidine] | 20 | 20 | 100 | 70 | 90 | 60 | 10 | 0 | 20 | 20 | 50 | 0 |
| COC(=O)c1nc(C2CC2)nc(NC2(/C=C/c3ccccc3F)CC2)c1Cl [Compound 4-27, 5-Chloro-2-cyclopropyl-4-{1-[2-(2-fluorophenyl)-ethenyl]-cyclo-propylamino}-6-methoxycarbonyl-pyrimidine] | 10 | 60 | 100 | 80 | 100 | 70 | 10 | 0 | 40 | 10 | 80 | 0 |
| COC(=O)c1nc(C2CC2)nc(NC2(/C=C/c3ccc(Cl)cc3Cl)CC2)c1Cl [Compound 4-28, 5-Chloro-2-cyclopropyl-4-{1-[2-(2,4-dichloro-phenyl)ethenyl]-cyclopropyl-amino}-6-methoxy-carbonylpyrimidine] | 10 | 30 | 100 | 80 | 100 | 50 | 10 | 0 | 90 | 40 | 70 | 10 |
| COC(=O)c1nc(C2CC2)nc(NC2(/C=C/c3cccc(Cl)c3Cl)CC2)c1Cl [Compound 4-29, 5-Chloro-2-cyclopropyl-4-{1-[2-(2,3-dichloro-phenyl)ethenyl]-cyclopropylamino}-6-methoxycarbonyl-pyrimidine] | 10 | 30 | 90 | 100 | 100 | 60 | 10 | 0 | 30 | 30 | 70 | 10 |
| COC(=O)c1nc(C2CC2)nc(NC2(/C=C/c3cccc(Cl)c3)CC2)c1Cl [Compound 4-30, 5-Chloro-4-{1-[2-(3-chlorophenyl)-etenyl]-cyclopropylamino}-2-cyclopropyl-6-methoxycarbonyl-pyrimidine] | 10 | 30 | 100 | 70 | 100 | 60 | 0 | 0 | 20 | 0 | 40 | 10 |
| COC(=O)c1nc(C2CC2)nc(NC2(/C=C/c3ccc(F)cc3F)CC2)c1Cl [Compound 4-31, 5-Chloro-2-cyclopropyl-4-{1-[2-(2,4-difluoro-phenyl)-ethenyl]-cyclopropylamino}-6-methoxy-carbonylpyrimidine] | 10 | 30 | 100 | 90 | 80 | 80 | 0 | 0 | 80 | 20 | 70 | 0 |
| COC(=O)c1nc(C2CC2)nc(NC2CCC2)c1Cl [Compound 4-32, 5-Chloro-4-cyclobutylamino-2-cyclopropyl-6-methoxycarbonyl-pyrimidine] | 50 | 70 | 100 | 90 | 100 | 90 | 50 | 50 | 80 | 80 | 80 | 80 |
| COC(=O)c1nc(C2CC2)nc(NC2CCCC2)c1Cl [Compound 4-33, 5-Chloro-4-cyclopentylamino-2-cyclopropyl-6-methoxycarbonyl-pyrimidine] | 30 | 60 | 80 | 70 | 70 | 70 | 0 | 20 | 50 | 20 | 50 | 10 |
| COC(=O)c1nc(C2CC2)nc(NC2CCCC2O)c1Cl (stereo not drawn) [Compound 4-34, 5-Chloro-2-cyclopropyl-4-(2-hydroxycyclopentylamino)-6-methoxycarbonyl-pyrimidine] | 20 | 60 | 100 | 80 | 60 | 60 | 30 | 20 | 100 | 80 | 90 | 50 |
